The values below are quoted from earlier work in patent publication US9629818B2, “Pharmaceutical composition of tapentadol for parenteral administration” (TORRENT PHARMACEUTICALS LTD, priority 2012, dated 2017).

Bounds are passed on as bounds.

The conditions of data set [1]: in vivo.
The conditions of data set [2]: given orally.

On to `CC[C@@H](c1cccc(O)c1)[C@@H](C)CN(C)C` [tapentadol, (−)-(1R,2R)-3-(3-dimethylamino-1-ethyl-2-methyl-propyl)-phenol], for which the “duration of analgesic effect” value in data set [1] was at most 12 h. In addition, the parent compound metabolized result in data set [2] is reported as “About 97%”.
